Experimental data taken from ChEMBL document CHEMBL4265935, “Synthesis and evaluation of novel arctigenin derivatives as potential anti-Toxoplasma gondii agents” (Eur J Med Chem, 2018).
The source made the active and inactive calls. The rule behind the calls is not given here.

Experiments:
[1] = system: Toxoplasma gondii; assay: Antiparasitic activity against Toxoplasma gondii RH tachyzoites by MTT assay; format: functional, organism-based
[2] = system: HeLa; assay: Cytotoxicity against human HeLa cells assessed as reduction in cell viability by MTT assay; format: cell-based
[3] = Selectivity index, ratio of IC50 for human HeLa cells to ratio of IC50 for Toxoplasma gondii RH tachyzoites; format: toxicity; settings: HeLa cells versus Toxoplasma gondii RH tachyzoites, read-out: Ratio IC50
[4] = system: Toxoplasma gondii; assay: Antiparasitic activity against Toxoplasma gondii RH tachyzoites infected in human HeLa cells assessed as decrease in cell shrinkage at 100 uM after 24 hrs by inverted optical microscopic analysis; format: functional, organism-based
[5] = system: Toxoplasma gondii; assay: Antiparasitic activity against Toxoplasma gondii RH tachyzoites infected in human HeLa cells assessed as decrease in number of cell death at 100 uM after 24 hrs by inverted optical microscopic analysis; format: functional, organism-based
[6] = system: Toxoplasma gondii; assay: Antiparasitic activity against Toxoplasma gondii RH infected in Kunming mouse assessed as inhibition of number of intraperitoneal tachyzoite in abdominal cavity at 100 mg/kg, po qd administered via gavage for 4 consecutive days measured on day 5 by light microscopic analysis relative to control; format: functional; settings: 120 h
[7] = system: Toxoplasma gondii; assay: Antiparasitic activity against Toxoplasma gondii RH infected in Kunming mouse assessed as inhibition of number of intraperitoneal tachyzoite in abdominal cavity at 200 mg/kg, po qd administered via gavage for 4 consecutive days measured on day 5 by light microscopic analysis relative to control; format: functional
[8] = system: Toxoplasma gondii; assay: Antiparasitic activity against Toxoplasma gondii RH infected in Kunming mouse assessed as improvement of hepatomegaly at 100 mg/kg, po qd administered via gavage for 4 consecutive days measured on day 5; format: functional, organism-based
[9] = system: Toxoplasma gondii; assay: Antiparasitic activity against Toxoplasma gondii RH infected in Kunming mouse assessed as reduction in serum ALT level at 100 mg/kg, po qd administered via gavage for 4 consecutive days measured on day 5; format: functional, organism-based
[10] = system: Toxoplasma gondii; assay: Antiparasitic activity against Toxoplasma gondii RH infected in Kunming mouse assessed as reduction in serum AST level at 100 mg/kg, po qd administered via gavage for 4 consecutive days measured on day 5; format: functional, organism-based
[11] = system: Toxoplasma gondii; assay: Antiparasitic activity against Toxoplasma gondii RH infected in Kunming mouse assessed as decrease in GSH level in liver at 100 mg/kg, po qd administered via gavage for 4 consecutive days measured on day 5; format: functional, organism-based
[12] = system: Toxoplasma gondii; assay: Antiparasitic activity against Toxoplasma gondii RH infected in Kunming mouse assessed as increase in body weight at 100 mg/kg, po qd administered via gavage for several consecutive days; format: functional, organism-based
[13] = system: Toxoplasma gondii; assay: Antiparasitic activity against Toxoplasma gondii RH infected in Kunming mouse assessed as survival rate at 100 mg/kg, po qd administered via gavage for several consecutive days measured on day 20 relative to control; format: functional; settings: 480 h
[14] = system: Toxoplasma gondii; assay: Antiparasitic activity against Toxoplasma gondii RH infected in Kunming mouse assessed as increase in survival rate by measuring mortality day at 100 mg/kg, po qd administered via gavage for several consecutive days measured on day 10 (reference value: 9 to 11 days); format: functional
[15] = system: Toxoplasma gondii; assay: Antiparasitic activity against Toxoplasma gondii RH tachyzoites infected in human HeLa cells assessed as increase in cell survival at 100 uM after 24 hrs by trypan blue assay relative to spiramycin; format: functional
[16] = system: Toxoplasma gondii; assay: Antiparasitic activity against Toxoplasma gondii RH tachyzoites infected in human HeLa cells assessed as cell survival at 100 uM after 24 hrs by trypan blue assay (reference value: 20.8%); format: functional
[17] = system: Toxoplasma gondii; assay: Antiparasitic activity against Toxoplasma gondii RH infected in Kunming mouse assessed as increase in GSH level in liver at 100 mg/kg, po qd administered via gavage for 4 consecutive days measured on day 5; format: functional, organism-based
[18] = system: Toxoplasma gondii; assay: Antiparasitic activity against Toxoplasma gondii RH infected in Kunming mouse assessed as increase in survival rate by measuring mortality day at 100 mg/kg, po qd administered via gavage for several consecutive days measured on day 12 (reference value: 9 to 11 days); format: functional
[19] = system: Toxoplasma gondii; assay: Antiparasitic activity against Toxoplasma gondii RH infected in Kunming mouse assessed as improvement of splenomegaly at 100 mg/kg, po qd administered via gavage for 4 consecutive days measured on day 5; format: functional, organism-based

SMILES	IC50 [1] [µM]	IC50 [2] [µM]	selectivity ratio [3]	further results
COc1ccc(C[C@H]2COC(=O)[C@@H]2Cc2ccc(OCc3cn(Cc4ccccc4)nn3)c(OC)c2)cc1OC	651	346	0.53	
COC(=O)[C@@H](NC(=O)CCC(=O)Oc1ccc(C[C@H]2C(=O)OC[C@@H]2Cc2ccc(OC)c(OC)c2)cc1OC)c1ccccc1	84.4	78.1	0.92	
COC(=O)[C@H](CC(C)C)NC(=O)CCC(=O)Oc1ccc(C[C@H]2C(=O)OC[C@@H]2Cc2ccc(OC)c(OC)c2)cc1OC	62.5	53.2	0.85	
COc1ccc(C[C@H]2COC(=O)[C@@H]2Cc2ccc(OC(=O)CCC(=O)N3CCCCC3)c(OC)c2)cc1OC	41	128	3.12	
COC(=O)[C@@H]1CCCN1C(=O)CCC(=O)Oc1ccc(C[C@H]2C(=O)OC[C@@H]2Cc2ccc(OC)c(OC)c2)cc1OC	43.9	145	3.31	
COc1ccc(C[C@H]2COC(=O)[C@@H]2Cc2ccc(OC(=O)CCC(=O)N3CCCC3)c(OC)c2)cc1OC	115	201	1.74	
COc1ccc(C[C@H]2COC(=O)[C@@H]2Cc2ccc(OCc3cn(Cc4ccc(Cl)cc4)nn3)c(OC)c2)cc1OC	251	242	0.97	
COc1cc(C[C@H]2C(=O)OC[C@@H]2Cc2ccc(OC)c(OC)c2)ccc1O [ARCTIGENIN]	586	573	0.98	Activity [4]: Active; Activity [5]: Active; inhibition in vivo at 100 mg/kg [6]: 75.9%; inhibition [7]: Active; Activity [8]: Active; Activity [9]: inactive; Activity [10]: Active; Activity [11]: Active; Activity [12]: Active; survival at 100 mg/kg [13]: 16%; mortality [14]: 10 days; Activity [15]: 18.4%
CCN(CC)C(=O)COc1ccc(C[C@H]2C(=O)OC[C@@H]2Cc2ccc(OC)c(OC)c2)cc1OC	388	188	0.48	
COc1ccc(C[C@H]2COC(=O)[C@@H]2Cc2ccc(OCc3cn(-c4ccc(F)cc4)nn3)c(OC)c2)cc1OC	≥ 600	≥ 600		
COc1ccc(C[C@H]2COC(=O)[C@@H]2Cc2ccc(OCc3cn(-c4cccc(Cl)c4)nn3)c(OC)c2)cc1OC	269	493	1.83	
COc1ccc(-n2cc(COc3ccc(C[C@H]4C(=O)OC[C@@H]4Cc4ccc(OC)c(OC)c4)cc3OC)nn2)cc1	≥ 600	≥ 600		
COc1ccc(C[C@H]2COC(=O)[C@@H]2Cc2ccc(OCC(=O)Nc3ccccc3)c(OC)c2)cc1OC	40.6	≥ 600	> 14.8	survival at 100 µM [16]: 69.7%; inhibition in vivo at 100 mg/kg [6]: 82%; Activity [8]: Active; Activity [9]: inactive; Activity [10]: Active; Activity [17]: Active; mortality [18]: 12 days; Activity [15]: 29.7%
COc1ccc(C[C@H]2COC(=O)[C@@H]2Cc2ccc(OCC(=O)N3CCOCC3)c(OC)c2)cc1OC	≥ 600	≥ 600		
COC(=O)[C@@H](Cc1ccccc1)NC(=O)CCC(=O)Oc1ccc(C[C@H]2C(=O)OC[C@@H]2Cc2ccc(OC)c(OC)c2)cc1OC	226	357	1.58	
COC(=O)[C@H](Cc1ccccc1)NC(=O)CCC(=O)Oc1ccc(C[C@H]2C(=O)OC[C@@H]2Cc2ccc(OC)c(OC)c2)cc1OC	≥ 600	≥ 600		

SMILES	IC50 [1] [µM]	IC50 [2] [µM]	selectivity ratio [3]	further results
COc1ccc(C[C@H]2COC(=O)[C@@H]2Cc2ccc(OCc3cn(Cc4ccccc4F)nn3)c(OC)c2)cc1OC	17.1	≥ 600	> 35.1	survival at 100 µM [16]: 68.4%; inhibition in vivo at 100 mg/kg [6]: 66.9%; Activity [8]: Active; Activity [19]: Active; Activity [9]: inactive; Activity [10]: Active; Activity [17]: Active; Activity [11]: Active; Activity [12]: Active; survival at 100 mg/kg [13]: 16%; mortality [14]: 10 days; Activity [15]: 28.4%
COc1ccc(C[C@H]2COC(=O)[C@@H]2Cc2ccc(OCC(=O)N3CCCCC3)c(OC)c2)cc1OC	313	293	0.94	
COC(=O)CC[C@H](NC(=O)CCC(=O)Oc1ccc(C[C@H]2C(=O)OC[C@@H]2Cc2ccc(OC)c(OC)c2)cc1OC)C(=O)OC	157	95.7	0.61	
COc1ccc(C[C@H]2COC(=O)[C@@H]2Cc2ccc(OCc3cn(-c4ccc(C)cc4)nn3)c(OC)c2)cc1OC	366	≥ 600	> 1.64	
COc1ccc(C[C@H]2COC(=O)[C@@H]2Cc2ccc(OCc3cn(-c4ccc(Br)cc4)nn3)c(OC)c2)cc1OC	429	128	0.3	
CCN(CC)C(=O)CCC(=O)Oc1ccc(C[C@H]2C(=O)OC[C@@H]2Cc2ccc(OC)c(OC)c2)cc1OC	206	213	1.04	
COc1ccc(C[C@H]2COC(=O)[C@@H]2Cc2ccc(OCC(=O)Nc3ccc(C)cc3)c(OC)c2)cc1OC	322	228	0.71	
COC(=O)[C@@H](NC(=O)CCC(=O)Oc1ccc(C[C@H]2C(=O)OC[C@@H]2Cc2ccc(OC)c(OC)c2)cc1OC)C(C)C	32.7	64	1.96	
COC(=O)[C@H](CCSC)NC(=O)CCC(=O)Oc1ccc(C[C@H]2C(=O)OC[C@@H]2Cc2ccc(OC)c(OC)c2)cc1OC	165	199	1.2	
COC(=O)CNC(=O)CCC(=O)Oc1ccc(C[C@H]2C(=O)OC[C@@H]2Cc2ccc(OC)c(OC)c2)cc1OC	157	179	1.14	
COc1ccc(C[C@H]2COC(=O)[C@@H]2Cc2ccc(OCc3cn(Cc4ccc(F)cc4)nn3)c(OC)c2)cc1OC	≥ 600	198	< 0.33	
COc1ccc(C[C@H]2COC(=O)[C@@H]2Cc2ccc(OCc3cn(Cc4ccccc4Cl)nn3)c(OC)c2)cc1OC	24.3	84.5	3.48	
COc1ccc(C[C@H]2COC(=O)[C@@H]2Cc2ccc(OCc3cn(-c4ccccc4)nn3)c(OC)c2)cc1OC	136	124	0.92	
COc1ccc(C[C@H]2COC(=O)[C@@H]2Cc2ccc(OCC(=O)N3CCCC3)c(OC)c2)cc1OC	336	≥ 600	> 1.78	
CCN1CCN(C(=O)CCC(=O)Oc2ccc(C[C@H]3C(=O)OC[C@@H]3Cc3ccc(OC)c(OC)c3)cc2OC)CC1	94.4	190	2.01	
COc1ccc(C[C@H]2COC(=O)[C@@H]2Cc2ccc(OCc3cn(-c4ccc(Cl)cc4)nn3)c(OC)c2)cc1OC	278	279	1	
